Reference: US5955431A, “Mast cell protease peptide inhibitors” (Brigham and Women's Hospital, Inc., priority 1998, dated 1999)
Where a SMILES comes first, the peptide text is derived from it. The star is where a group is joined. pNA = O=[N+]([O-])c1ccc(N*)cc1

Legend:
recombinant mMCP-6-FLAG = molecular target: T1, recombinant mMCP-6-FLAG (Mus musculus, UniProt P21845); test: spectrophotometric cleavage of trypsin-susceptible p-nitroanilide substrates by EK-activated mMCP-6-FLAG; assay type: biochemical
T1 construct: endogenous pro-peptide followed by EK-susceptible peptide (Asp-Asp-Asp-Asp-Lys) (N, cleaved yes); made in house; host or cells: baculovirus; Spodoptera frugiperda 9 for virus, Trichoplusia ni High Five insect cells for expression
T1 sequence (P21845 32-276): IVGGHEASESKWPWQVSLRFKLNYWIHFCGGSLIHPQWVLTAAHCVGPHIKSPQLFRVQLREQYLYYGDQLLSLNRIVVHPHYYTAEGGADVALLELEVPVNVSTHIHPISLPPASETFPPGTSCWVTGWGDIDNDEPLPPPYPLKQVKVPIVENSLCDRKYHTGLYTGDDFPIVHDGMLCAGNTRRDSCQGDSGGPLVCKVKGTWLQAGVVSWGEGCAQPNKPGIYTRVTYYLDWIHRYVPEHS
Method: Purified pro-EK-mMCP-6-FLAG (~100 μg in 100 μl) was separately mixed with 100 μl of a pH 5.2 buffer consisting of 50 mM sodium acetate and 5 mM calcium chloride. One μl of a solution containing 550 U of calf intestine EK (Biozyme) was added to each, and the mixture was incubated at 37° C. generally for 3 h to allow EK to activate the zymogen in the absence of heparin. The spectrophotometric method of Svendsen and coworkers (Throm. Res. 1972, 1:267-278) was used to determine whether or not mMCP-6-FLAG is enzymatically active. Generally, 1-μl samples of each activation reaction were placed in 1 ml of a pH 7.4 buffer containing 25 mM sodium phosphate, 1 mM EDTA, and 50 μg of tosyl-Gly-Pro-Lys-p-nitroanilide. The change in optical density at 405 nm was then determined after a 3-min incubation at room temperature. The ability of recombinant mMCP-6-FLAG to cleave the trypsin-susceptible substrates tosyl-Gly-Pro-Arg-p-nitroanilide, benzoyl-Ile-Glu-Gly-Arg-p-nitroanilide, benzoyl-Pro-Phe-Arg-p-nitroanilide, and acetyl-Ile-Glu-Ala-Arg-p-nitroanilide were also evaluated.

recombinant mMCP-7-FLAG = molecular target: T2, recombinant mMCP-7-FLAG (Mus musculus, UniProt Q02844); test: cleavage of p-nitroanilide substrate by mMCP-7-FLAG; assay type: biochemical; conditions: in vitro
T2 construct: made in house; host or cells: insect cells (described in earlier work of the same group)
T2 sequence (Q02844 29-273): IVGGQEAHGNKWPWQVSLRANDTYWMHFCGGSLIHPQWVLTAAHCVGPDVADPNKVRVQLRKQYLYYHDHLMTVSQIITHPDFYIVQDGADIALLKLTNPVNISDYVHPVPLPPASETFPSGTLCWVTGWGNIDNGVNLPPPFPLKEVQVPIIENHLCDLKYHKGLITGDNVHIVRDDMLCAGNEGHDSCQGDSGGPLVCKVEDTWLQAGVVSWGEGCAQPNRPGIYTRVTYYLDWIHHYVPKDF

neutrophils = test: emigration of neutrophils into the peritoneal cavity after injection of tryptase; assay type: in vivo, BALB/c mice
Excerpt: mMCP-6-FLAG-Induced Emigration of Neutrophils Into the Peritoneal Cavity and mMCP-6-Induced Growth of Fibroblasts and their Adhesion to Fibronectin--This experiment is discussed below.
mMCP-6-Induced Emigration of Neutrophils Into the Peritoneal Cavity of BALB/c Mice--The mast cells that reside in the peritoneal cavity of BALB/c mice express mMCP-6 but not mMCP-7 (Stevens et al., Proc. Natl. Acad. Sci. USA 1994, 91:128-132). […] Thus, the direct or indirect chemotaxis activity of mMCP-6 is relatively neutrophil specific. It also appears that tryptase treatment results in a relatively persistent recruitment of neutrophils into the peritoneal cavity.

mouse fibronectin = test: in vitro degradation of fibronectin by recombinant tryptases; assay type: biochemical
Method: In Vitro Degradation of Fibronectin by Recombinant mMCP-6-FLAG--Five μg of purified mouse fibronectin (Alexis) was suspended in 1 mM EDTA and 25 mM sodium phosphate, pH 7.4, containing 0.01 U EK, 0.5 μg recombinant pro-EK-mMCP-6-FLAG, 0.5 μg recombinant mMCP-6-FLAG (activated with 0.01 U EK), or 0.5 μg recombinant mMCP-7FLAG (activated with 0.01 U EK). After an incubated for various lengths of times, the resulting digests were subjected to SDS-PAGE. In one experiment, the N-terminal amino acid sequences; of the major fibronectin fragments in the mMCP-FLAG digest were determined.

[1] = test system: Swiss albino mouse skin-derived 3T3 fibroblasts; test: adhesion and growth of fibroblasts on fibronectin-coated culture dishes; assay type: cell-based; conditions: for adhesion/shape of fibroblasts on fibronectin-coated dishes: 15 min at 37° C.
Method: However, these cells will become less adhesive and divide in vitro when they are trypsin treated. To determine if mMCP-6-FLAG could specifically alter the growth and/or adhesion of these cells, the fibroblasts were allowed to attach to replicate fibronectin-coated culture dishes and then were incubated for 15 min at 37° C. with buffer alone or buffer containing either pro-EK-mMCP-6-FLAG, mMCP-6-FLAG, mMCP-7-FLAG, or trypsin. […] SDS-PAGE/immunoblot analysis of the supernatants from the result cultures confirmed that fibronectin was degraded in the mMCP-6-FLAG-treated cultures but not in the pro-EK-mMCP-6-FLAG or mMCP-7-FLAG treated cultures.

Row | Molecule | cleavage of substrate by mMCP-6-FLAG (recombinant mMCP-6-FLAG; in the presence or absence of heparin) | cleavage of substrate by mMCP-7-FLAG compared with mMCP-6-FLAG (recombinant mMCP-7-FLAG) | neutrophil chemotaxis activity in the in vivo assay (neutrophils; enzymatically active tryptase, peritoneal cavity) | cleavage of fibronectin in vitro (mouse fibronectin; SDS-PAGE of digests) | contact inhibition of treated fibroblasts [1] | rate of proliferation of treated fibroblasts [1] | adhesion/shape of fibroblasts on fibronectin-coated dishes [1] | persistence of induced neutrophilia (neutrophils; kinetic experiments, peritoneal cavity) | influx of neutrophils in the peritoneal cavity (neutrophils; six to 36 h after intraperitoneal administration) | number of fibronectin fragments obtained (mouse fibronectin; 60-min incubation, tryptase bound to heparin) | pH of optimal enzymatic activity (recombinant mMCP-6-FLAG; recombinant, EK-activated) | fibroblasts remaining attached to the culture dish ([1]; 40 min incubation) | degradation of fibronectin in culture supernatants ([1]; SDS-PAGE/immunoblot analysis)
1 | CC[C@H](C)[C@H](NC(C)=O)C(=O)N[C@@H](CCC(=O)O)C(=O)N[C@@H](C)C(=O)N[C@@H](CCCN=C(N)N)C(=O)Nc1ccc([N+](=O)[O-])cc1 [acetyl-Ile-Glu-Ala-Arg-p-nitroanilide] (Ac-IEAR-pNA) | does not effectively cleave | much better than mMCP-6-FLAG |  |  |  |  |  |  |  |  |  |  | 
2 | mMCP-7-FLAG: EK-activated recombinant mouse mast cell protease 7 (tryptase) with FLAG peptide |  |  | very little, if any | not | do not lose their contact inhibition | do not increase their rate of proliferation | continued to adhere |  |  |  |  |  | 
3 | mMCP-6-FLAG: EK-activated recombinant mouse mast cell protease 6 (tryptase) with the FLAG peptide attached to its C-terminus (protein, UniProt P21845 32-276, looked up, C-terminal FLAG tag) Tryptase beta-2: IVGGHEASESKWPWQVSLRFKLNYWIHFCGGSLIHPQWVLTAAHCVGPHIKSPQLFRVQLREQYLYYGDQLLSLNRIVVHPHYYTAEGGADVALLELEVPVNVSTHIHPISLPPASETFPPGTSCWVTGWGDIDNDEPLPPPYPLKQVKVPIVENSLCDRKYHTGLYTGDDFPIVHDGMLCAGNTRRDSCQGDSGGPLVCKVKGTWLQAGVVSWGEGCAQPNKPGIYTRVTYYLDWIHRYVPEHS |  |  |  |  |  |  | rapidly induced the cultured fibroblasts to round up | at least 3 days | pronounced influx of neutrophils | 2 fragments | ~7.4 | very few fibroblasts remained attached | degraded
